For data set [1], the system named is NTCP. Details: method as in PMID 30978651. To be noted: cited from earlier work.
For data set [2], the system named is CYP and UGT enzymes. Put plainly: Inhibition of the panel of eight CYP and three UGT isozymes (statements over all enzymes). In kind it is in vitro ADME, human. To be noted: compound 100 μM. On the procedure: After centrifugation (13,800g, 10 min), the supernatant (8 μL) was obtained for determination by UHPLC system.
In this study, phenacetin (100 μM), coumarin (100 μM), bupropion (100 μM), paclitaxel (60 μM), tolbutamide (200 μM), mephenytoin (100 μM), chlorzoxazone (200 μM) and nifedipine (40 μM) have been used as the probe substrates for CYP1A2, 2A6, 2B6, 2C8, 2C9, 2C19, 2E1 and 3A4, respectively.
Similarly, β-estradiol (60 μM), propofol (40 μM) and 4-MU (350 μM) were typically used as the substrates for UGT1A1, 1A9 and 2B7, respectively. After optimization of incubation conditions (Additional file 1: Fig. S2), the protein concentrations for UGT1A1, 1A9, and 2B7 were 0.125, 0.05, and 0.05 mg/mL, respectively.

On the set-up of data set [3]: method as in PMID 16500065. The following applies: intravenous infusion of 600 mg oxymatrine, healthy male volunteers; cited from earlier work.
The subject of data set [4] is HepG2, MCF-7, HeLa, A549 cells. Also on record: method as in PMID 31283981. The following applies: cited from earlier work.
The subject of data set [5] is SW-620, BGC823, A375 cells. Details: method as in PMID 31283981. To be noted: cited from earlier work.
On the set-up of data set [6]: method as in PMID 26586934. The following applies: pooled HLM; read-out: Km (metabolism to matrine); cited from earlier work.
Details of data set [7]: method as in PMID 26586934. The following applies: HIM; read-out: Km (metabolism to matrine); cited from earlier work.
The subject of data set [8] is CYP3A4. Also on record: method as in PMID 26586934. To be noted: CYP3A4 isozyme; read-out: Km (metabolism to matrine); cited from earlier work.

Where two headings read alike, the source gives them in different places.

Broadly, the IC50 is the concentration at which inhibition is half-maximal. For `CC(C)=CCC[C@](C)(O[C@@H]1O[C@H](CO)[C@@H](O)[C@H](O)[C@H]1O)[C@H]1CC[C@]2(C)[C@@H]1[C@H](O)C[C@@H]1[C@@]3(C)CC[C@H](O)C(C)(C)[C@@H]3[C@@H](O[C@@H]3O[C@H](CO)[C@@H](O)[C@H](O)[C@H]3O)C[C@]12C` [Compound C6, Ginsenoside Rg1], the half-inhibitory concentration (IC50) in data set [1] was 50.5 µM.

For the compound `CC(C)=CCC[C@](C)(O)[C@H]1CC[C@]2(C)[C@@H]1[C@H](O)C[C@@H]1[C@@]3(C)CC[C@H](O)C(C)(C)[C@@H]3[C@@H](O[C@@H]3O[C@H](CO)[C@@H](O)[C@H](O)[C@H]3O[C@@H]3O[C@H](CO)[C@@H](O)[C@H](O)[C@H]3O)C[C@]12C` [Compound C7, Ginsenoside Rf], the “changes against these CYP and UGT enzymes” value in data set [2] is “almost no changes”.

For orientation: Km means the concentration of substrate that gives half-maximal velocity. Regarding `O=C1CCC[C@@H]2[C@H]3CCC[N+]4([O-])CCC[C@@H](CN12)[C@@H]34` (some centres unmarked) [Compound A3, Oxymatrine], the “fraction of oxymatrine reduced to matrine” value in data set [3] is recorded as “about 19.9%”. For the same compound, the “reported effective concentrations (IC50 or EC50 values)” value in data set [4] was 473.48 to 3787.84 µM. The “effective concentrations to inhibit tumor cell viability” value in data set [5] was 0.10 to 40.00 µmol/L. For the same compound, the Michaelis-Menten constant (Km) in data set [6] was 221 µM; in data set [7], 150 µM; in data set [8] it was 341 µM.

These data come from publication PMC7339578, “Multiple circulating alkaloids and saponins from intravenous Kang-Ai injection inhibit human cytochrome P450 and UDP-glucuronosyltransferase isozymes: potential drug–drug interactions” (Chinese Medicine, 2020).
